Source: patent US20250002863A1, “METHOD OF GENERATING FUNCTIONAL ISLETS FROM PLURIPOTENT STEM CELLS” (HANGZHOU REPROGENIX BIOSCIENCE, INC., priority 2021, published 2025)

Tested on: pancreatic endocrine progenitors
Experiment: Addition of small molecules ISX9 and Wnt-C59 at Stage 5, flow cytometry of β cell marker expression in Stage 6 aggregates
Assay type: cell-based, human
Settings: added at Stage 5 of the hPSC differentiation protocol (10 μM ISX9, 100 nM Wnt-C59)
From the text: FIG. 5 illustrates establishment of efficient hPSC-islet generation protocol and characterization of hPSC-islets. a, Flow cytometry analysis comparing differentiation efficiencies between planar culture and suspension culture at various stages of the protocol in terms of pancreatic progenitor markers at the end of Stage 4 and β cell markers at the end of Stage 6 (n=5). b, Flow cytometry of β cell marker expression in Stage 6 aggregates without and with addition of small molecules ISX9 and Wnt-C59, individually or in combination at Stage 5, detected at S6D2 (n=4). c, Continuous stage-wise tracking of pancreatic progenitor, endocrine progenitor, and β cell markers by flow cytometry throughout the differentiation protocol (n=3). (d-h) In vitro characterization of stage 6 islet-like aggregates. d, Representative immunostaining of key β cell transcription factors in sectioned Stage 6 aggregates. Scale bar, 50 μm. e, C-peptide secretion of Stage 6 aggregates (n=3) and primary human islets in static glucose stimulation assay (n=2). Glucose stimulation index as indicated above bars. f, Insulin secretion of hPSC-islets in dynamic perifusion assay. g, Electron microscopy depicting ultrastructure of Stage 6 β cell and insulin granules. Scale bar, 2.5 μm. h, Glucagon secretion by hPSC-islets in static glucose stimulation assay. […]

## O=C(NC1CC1)c1cc(-c2cccs2)on1 [ISX9, Isoxazole 9]
  differentiation of pancreatic progenitors / terminal differentiation of pancreatic endocrine progenitors: promoted the terminal differentiation of pancreatic endocrine progenitors
